Reference: patent publication US4294845A, “1,3-Benzodioxin derivatives” (priority 1978, dated 1981)

Legend:
[1] = test system: levels of triglycerides, cholesterol and total lipids; test: Hypolipemiant activity: plasma lipid levels in rats on a saccharose and cholesterol-rich regime, 10 days treatment; type: in vivo, male rats of the Sprague Dawley S.P.F. strain; details: esophague tube, vs untreated controls
Procedure: This test was effected on groups of 8 male rats of the Sprague Dawley S.P.F. strain weighing about 200 g and the animals received a regime containing 50% of saccharose and which was rich in cholesterol (1%). The rats were treated over 10 days with the test products which were administered through an esophague tube as a suspension in water containing carboxymethylcellulose. The animals were killed 16 hours after the last administration of the test product by an abdominal puncture and from the blood sample with sodium heparinate, the levels of triglycerides, cholesterol and total lipids were determined by the following methods.
The triglyceride level was determined by the semi-automatic technique of Kessler et al [Automation in Analytical Chemistry, 1965, p. 341] modified by Claude et al [Ann. Biol. Clin., Vol. 26 3-4 (1968), p. 451]. The cholesterol levels were determined by the technique of Levine [Symposium Technicon, Vol. I. (1967), p. 25] adapted to auto-analyzer system I. The nephelometric level of total lipids was determined semi-automatically by the method of Girard et al [Symposium Technicon, 1970]. The variations expressed in percentages of the level of triglycerides, cholesterol and total lipids after administration of the various dosage of the test products in the treated animals as compared to the untreated controls and the results are reported in Table I.

[2] = Acute toxicity in mice (intraperitoneal, DL50); type: in vivo; details: mouse, in vivo, ip, observed for one week
Procedure: (§1) The acute toxicity was determined on groups of 5 mice weighing about 18 to 22 g and the test products were intraperitoneally administered in suspension in an aqueous carboxymethylcellulose.

mice = test: Acute toxicity in mice (intraperitoneal, DL50); type: in vivo; details: observed for one week, 10080 min
Procedure: as §1

SMILES	% Variation of levels, Cholesterol ([1]; 2 mg/kg/day) [%]	% Variation of levels, Total Lipids ([1]; 2 mg/kg/day) [%]	% Variation of levels, Triglycerides ([1]; 2 mg/kg/day) [%]	LD50 at 168 h [2] [mg/kg]	% Variation of levels, Cholesterol ([1]; 5 mg/kg/day) [%]	% Variation of levels, Total Lipids ([1]; 5 mg/kg/day) [%]	% Variation of levels, Triglycerides ([1]; 5 mg/kg/day) [%]	% Variation of levels, Cholesterol ([1]; 1 mg/kg/day) [%]	% Variation of levels, Total Lipids ([1]; 1 mg/kg/day) [%]	% Variation of levels, Triglycerides ([1]; 1 mg/kg/day) [%]	DL50 (mice) [mg/kg]
CC1(c2ccccc2)OC(C(=O)O)Oc2ccc(Cl)cc21 (single isomer, unassigned) [18 Isomer A 1 form]	-47	-53	-53	~250							
CN(C)CCOC(=O)C1Oc2ccc(Cl)cc2C(C)(c2ccccc2)O1 (single isomer, unassigned) [41 Isomer A]				~200	-40	-49	-43				
CC1(c2ccccc2)OC(C(=O)O)Oc2ccc(Cl)cc21 (racemic) [Example 1, 6-chloro-4-methyl-4-phenyl-[4H]-1,3-benzodioxin-2-carboxylic acid]				130	-22	-26	-11				
CC1(c2cccc(Cl)c2)OC(C(=O)O)Oc2ccc(Cl)cc21 (single isomer, unassigned) [21 Isomer A]				~150				-11	-25	-62	
CCOC(=O)C1Oc2ccc(Cl)cc2C(C)(c2ccccc2)O1 (single isomer, unassigned) [16 Isomer A]	-17	-25	-32	~800							
CC1(c2ccccc2)OC(C(=O)O)Oc2ccc(Cl)cc21 (single isomer, unassigned) [17 Isomer A]	-43	-47	-57	~200							
COC(=O)C1Oc2ccc(Cl)cc2C(C)(c2cccc(Cl)c2)O1 (single isomer, unassigned) [20 Isomer A]				≤ 1000				-36	-32	-13	
CC1(c2ccccc2)OC(C(=O)O)Oc2ccc(Cl)cc21 (racemic) [Example 3, 6-chloro-4-methyl-4-phenyl-[4H]-1,3-benzodioxin-2-carboxylic acid]	-36	-38	-12								150
